Test results as given in paper PMC2996881 (Biochemistry, 2010).

Tests used:
[1] = molecular target: T1, CgTHI6 (Nakaseomyces glabratus, UniProt Q6FV03); test: HPLC of Thz-P formation at […] nm; format: biochemical; conditions: ThiM activity; 2 mM ATP, 1.2 mM Thz, 2 mM MgSO4, room temperature, 2 h
T1 sequence (Q6FV03 1-540): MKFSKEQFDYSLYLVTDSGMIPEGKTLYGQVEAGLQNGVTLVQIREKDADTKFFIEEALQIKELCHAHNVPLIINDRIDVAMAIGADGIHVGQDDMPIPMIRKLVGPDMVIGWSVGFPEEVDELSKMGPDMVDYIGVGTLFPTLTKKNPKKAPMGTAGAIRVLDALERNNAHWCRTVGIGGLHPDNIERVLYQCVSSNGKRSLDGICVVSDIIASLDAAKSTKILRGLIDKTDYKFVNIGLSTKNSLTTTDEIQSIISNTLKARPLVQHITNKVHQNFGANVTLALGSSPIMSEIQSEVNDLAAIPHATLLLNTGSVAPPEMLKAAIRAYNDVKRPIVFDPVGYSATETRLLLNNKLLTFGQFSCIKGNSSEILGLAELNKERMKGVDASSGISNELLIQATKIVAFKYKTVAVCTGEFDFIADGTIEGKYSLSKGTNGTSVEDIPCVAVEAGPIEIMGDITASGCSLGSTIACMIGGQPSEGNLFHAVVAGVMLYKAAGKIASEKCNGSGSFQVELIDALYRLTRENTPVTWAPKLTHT

[2] = molecular target: T1, CgTHI6; test: HPLC of ThMP formation at […] nm; format: biochemical; conditions: TPS activity; 1 mM HMP-PP, 1.2 mM Thz, 2 mM ATP, 2 mM MgSO4, room temperature, 2 h
[3] = molecular target: T1, CgTHI6; test: X-ray crystal structure; format: binding; conditions: ThiM (C-terminal) domain ATP site; Mg2+

## Nc1ncnc2c1ncn2[C@@H]1O[C@H](COP(=O)(O)OP(=O)(O)OP(=O)(O)O)[C@@H](O)[C@H]1O [ATP]
[1]
  HPLC of Thz-P formation at 261 nm: the purified protein was incubated with Thz and ATP, formation of Thz-P was noted

## Cc1ncc(COP(=O)(O)OP(=O)(O)O)c(N)n1 [HMP-PP, 4-amino-5-hydroxymethyl-2-methylpyrimidine pyrophosphate]
[2]
  HPLC of ThMP formation at 261 nm: Incorporation of HMP-PP in the same reaction resulted in the production of ThMP

## Nc1ncnc2c1ncn2[C@@H]1O[C@H](COP(=O)(O)OP(=O)(O)CP(=O)(O)O)[C@@H](O)[C@H]1O [AMP-PCP]
[3]
  X-ray crystal structure (soaked, 3.3 A with Thz; 2.6 A with ThMP): The ATP binding site is inferred from the complex containing the non-hydrolizable ATP analogue, AMP-PCP
